Test results taken from the Deep4Chem optical property database.
Where “and” joins values, the source holds several entries; their conditions need not be identical. Equal values may be shown once.

Experiment: solvent given as SMILES

## CCC1(CC)c2cc(B(c3c(C)cc(C)cc3C)c3c(C)cc(C)cc3C)ccc2-c2c1c1c(c3c2C(CC)(CC)c2cc(B(c4c(C)cc(C)cc4C)c4c(C)cc(C)cc4C)ccc2-3)C(CC)(CC)c2cc(B(c3c(C)cc(C)cc3C)c3c(C)cc(C)cc3C)ccc2-1
In C1CCOC1
  emission maximum: 386 nm
In CC#N
  emission maximum: 403 nm
In CC(C)=O
  emission maximum: 396 nm
In CCCCCC
  emission maximum: 382 nm
In Cc1ccccc1
  emission maximum: 385 nm

## COc1cc(OC)cc(C2=C3C(C)=C(I)C(C)=[N+]3[B-](F)(F)n3c(/C=C/c4ccsc4)c(I)c(C)c32)c1
In C1CCOC1
  emission maximum: 610 nm
In CS(C)=O
  emission maximum: 621 nm
In ClCCl
  emission maximum: 610 nm

## Cc1ccccc1
In C1CCCCC1
  emission maximum: 286.62 nm

## CCCC1(CCC)c2cc(-c3cccc(Cc4ccc(/C=C/c5ccccc5)cc4)c3)ccc2-c2ccc(-c3cccc(Cc4ccc(/C=C/c5ccccc5)cc4)c3)cc21
In C1CCCCC1
  emission maximum: 359 nm

## CC(C)(C)c1cc2ccc3c(N(c4ccc(F)cc4)c4ccc(F)cc4)cc(N(c4ccc(F)cc4)c4ccc(F)cc4)c4ccc(c1)c2c34
In ClCCl
  emission maximum: 465 nm

## c1ccc(-c2nc(-c3ccccc3)nc(-c3ccc(-n4c5ccccc5c5ccc6c(c7ccccc7n6-c6ccccc6)c54)cc3)n2)cc1
In Cc1ccccc1
  emission maximum: 466.56 nm and 461 nm
In O=P(c1ccccc1)(c1ccccc1)c1ccc2oc3ccc(P(=O)(c4ccccc4)c4ccccc4)cc3c2c1
  emission maximum: 479 nm

## Cc1ccc(S(=O)(=O)Nc2c(/C=C/c3ccccc3)sc(-c3ccc(N(C)C)cc3)c2-c2ccsc2)cc1
In CC#N
  emission maximum: 627 nm

## c1ccc2c(c1)ncc1ccc3cnc4ccccc4c3c12
In CC#N
  emission maximum: 408 nm

## O=S(=O)(/N=c1\oc2cccc3c4c(-c5ccccc5)oc5cccc(c(c1-c1ccccc1)c23)c54)C(F)(F)F
In CCCCCC
  emission maximum: 535 nm
In CO
  emission maximum: 582 nm
In CS(C)=O
  emission maximum: 596 nm
In ClC(Cl)Cl
  emission maximum: 558 nm
In ClCCl
  emission maximum: 569 nm
In O
  emission maximum: 601 nm

## CCCCCCCCCCCCOc1cc2c3c(ccc4c5c(OCCCCCCCCCCCC)cc6c7c(ccc(c1c34)c75)C(=O)N(C1CCCCC1)C6=O)C(=O)N(C1CCCCC1)C2=O
In ClC(Cl)Cl
  emission maximum: 597 nm

## [NH3+]c1ccc2c(c1)Cc1ccccc1-2
In O
  emission maximum: 314 nm

## N#CC1=C(c2ccc(-c3cccs3)s2)CCC1
In C1CCOC1
  emission maximum: 441 nm
In CC#N
  emission maximum: 445 nm
In CCCCCC
  emission maximum: 428 nm
In CCO
  emission maximum: 443 nm
In OCCOCCO
  emission maximum: 455 nm
In c1ccncc1
  emission maximum: 450 nm

## COc1ccc(C2=C(Br)C(c3ccccc3)=[N+]3C2=Nc2c(-c4ccc(OC)cc4)c(Br)c(-c4ccccc4)n2[B-]3(F)F)cc1
In Cc1ccccc1
  emission maximum: 691 nm

## CCCCOC(=O)c1cc(Cl)c2c3c(Cl)cc4c5c(cc(Cl)c(c6c(Cl)cc(C(=O)OCCCC)c1c26)c53)C(=O)N(c1c(C(C)C)cccc1C(C)C)C4=O
In Cc1ccccc1
  emission maximum: 530 nm

## Cc1c(OCC(=O)O)cc2c3c([nH]c2c1C)C(=O)CCC3
In C1COCCO1
  emission maximum: 403.62 nm
In CC#N
  emission maximum: 419.17 nm
In CCO
  emission maximum: 461.12 nm
In CS(C)=O
  emission maximum: 427.12 nm
In O
  emission maximum: 507.23 nm

## O=S1(=O)C2=C(c3ccc(N(c4ccccc4)c4ccccc4)cc31)C1(C3=C(c4ccccc41)S(=O)(=O)c1cc(N(c4ccccc4)c4ccccc4)ccc13)c1ccccc12
In C1CCOC1
  emission maximum: 561 nm
In CC#N
  emission maximum: 598 nm
In CCCCCC
  emission maximum: 521 nm
In Cc1ccccc1
  emission maximum: 543 nm
In ClCCl
  emission maximum: 577 nm

## CC(=O)c1ccc(-c2nc3ccc(N(C)C)cc3s2)cc1
In C1CCCCC1
  emission maximum: 435 nm
In CC#N
  emission maximum: 588 nm
In CC(C)O
  emission maximum: 611.34 nm
In CO
  emission maximum: 676 nm
In CS(C)=O
  emission maximum: 587.85 nm
In ClC(Cl)Cl
  emission maximum: 524 nm
In c1ccccc1
  emission maximum: 487.85 nm

## COc1cc(OC)cc(C2=C3C(C)=C(I)C(C)=[N+]3[B-](F)(F)n3c(/C=C/c4c[nH]c5ccccc45)c(I)c(C)c32)c1
In C1CCOC1
  emission maximum: 668 nm
In CS(C)=O
  emission maximum: 676 nm
In ClCCl
  emission maximum: 661 nm

## O=c1oc2cc(S(=O)(=O)O)c3ccccc3c2nc1-c1ccccc1
In CC#N
  emission maximum: 480 nm

## CCCCCCCC[n+]1ccc(-c2cc[n+](CCCCCCCC)cc2)cc1
In CC#N
  emission maximum: 353 nm

## CC1=[N+]2C(=C(c3ccccc3)c3c4c(c(C)n3[B-]2(F)F)C2CCC4CC2)C2=C1C1CCC2CC1
In CC#N
  emission maximum: 543 nm

## CCn1c2ccccc2c2cc(C#Cc3cc(C#Cc4ccc5c(c4)c4ccccc4n5CC)nc(SC)n3)ccc21
In C1CCOC1
  emission maximum: 449 nm
In CCOC(C)=O
  emission maximum: 446 nm
In CN(C)C=O
  emission maximum: 502 nm
In Cc1ccccc1
  emission maximum: 416 nm
In ClCCl
  emission maximum: 471 nm

## Cc1cc(C)c(B(c2c(C)cc(C)cc2C)N2c3ccccc3C3(c4ccccc4-c4ccccc43)c3ccccc32)c(C)c1
In C1CCCCC1
  emission maximum: 527 nm
In Cc1ccccc1
  emission maximum: 538 nm
In ClCCl
  emission maximum: 560 nm

## C(#Cc1ccccc1)C(C#Cc1ccccc1)=Cc1ccccc1
In ClC(Cl)Cl
  emission maximum: 392 nm

## CN(C)c1ccc(C(=Cc2ccc(/C=C(\C#N)c3ccccc3)cc2)c2ccc(N(C)C)cc2)cc1
In C1CCOC1
  emission maximum: 616 nm

## COc1cc(OC)c2c(c1)C(=O)c1ccccc1-2
In C1CCCCC1
  emission maximum: 537 nm
In CC#N
  emission maximum: 592 nm

## CC[n+]1c(-c2ccccc2)c2cc(N)ccc2c2ccc(-n3cccc3)cc21
In O
  emission maximum: 592 nm

## CN(C)c1ccc(/C=C/c2nc3ccc(Br)cc3nc2-c2ccccc2)cc1
In C1COCCO1
  emission maximum: 555 nm
In CC#N
  emission maximum: 648 nm
In ClCCl
  emission maximum: 602 nm
